Tests used:
Assay type in all cases: in vivo
Conditions in all cases: after four weeks, 0=no damage 100=complete damage
[1] = test system: Setaria viridis; assay: Post-emergence action against weeds, Example 2: greenhouse, visual scoring of damage
Description: (§1) The plant species listed below were sown in Jiffy pots and cultivated in a greenhouse at a day/night rhythm of 22° C./14° C. At the 2-4-leaf stage, the plants were then treated with an aqueous solution of the compounds in question at the stated dosages. After four weeks, the results were scored visually using the following scheme: 0=no damage 100=complete damage AS/ha=active substance/hectare

[2] = test system: Digitaria sanguinalis; assay: as above
Description: as §1

[3] = test system: Abutilon theophrasti; assay: Post-emergence action against weeds, Example 3: greenhouse, visual scoring of damage
Description: as §1

[4] = test system: Polygonum convolvulus; assay: as above
Description: as §1

[5] = test system: Polygonum convolvulus; assay: Post-emergence action against weeds, Example 2: greenhouse, visual scoring of damage
Description: as §1

## Cc1ccc2c(c1)[C@H](Nc1nc(N)nc([C@@H](C)F)n1)[C@H](C)C2 (racemic) [Compound B-44, 2-amino-4-[(1RS,2RS)-2,6-dimethylindan-1-ylamino]-6-[(1RS)-1-fluorethyl]-1,3,5-triazine]
[1]; 13 g of AS/ha
  Damage SETVI: 3
[1]; 25 g of AS/ha
  Damage SETVI: 5

## Cc1ccc2c(c1)[C@H](Nc1nc(N)nc([C@@H](C)F)n1)CC2 [Compound B-22, 2-amino-4-[(1R)-6-methylindan-1-ylamino]-6-[(1R)-1-fluoroethyl]-1,3,5-triazine]
[2]; 13 g of AS/ha
  Damage DIGSA: 24
[2]; 25 g of AS/ha
  Damage DIGSA: 55

## Cc1ccc2c(c1)[C@H](Nc1nc(N)nc([C@@H](C)F)n1)[C@@H](C)C2 [Compound B-47, 2-amino-4-[(1R,2S)-2,6-dimethylindan-1-ylamino]-6-[(1R)-1-fluoroethyl]-1,3,5-triazine]
[3]; 13 g of AS/ha
  Damage ABUTH: 5
[3]; 25 g of AS/ha
  Damage ABUTH: 15
[4]; 13 g of AS/ha
  Damage POLCO: 0
[4]; 25 g of AS/ha
  Damage POLCO: 0
[5]; 13 g of AS/ha
  Damage POLCO: 0
[5]; 25 g of AS/ha
  Damage POLCO: 0

From patent publication US20100048400A1, “HERBICIDE COMBINATION” (BAYER CROPSCIENCE AG, priority 2007, published 2010)
